Reference: patent US11274073B2, “TRPV1 modulator compounds” (ANTALGENICS, S.L., priority 2017, dated 2022)

Each compound was assayed against T1, rat TRPV1 channel (Rattus norvegicus, UniProt O35433) (assay: Calcium microfluorometry assay on TRPV1-SH-SY5Y cells, single concentration 10 μM). Settings: compound 10 μM before stimulation with 10 μM capsaicin, RR (10 μM Ruthenium Red) = 100%.
T1 construct: expressed in transfected cells; host or cells: SH-SY5Y (human neuroblastoma) stably expressing rat TRPV1, under puromycin selection
T1 sequence (O35433 whole entry): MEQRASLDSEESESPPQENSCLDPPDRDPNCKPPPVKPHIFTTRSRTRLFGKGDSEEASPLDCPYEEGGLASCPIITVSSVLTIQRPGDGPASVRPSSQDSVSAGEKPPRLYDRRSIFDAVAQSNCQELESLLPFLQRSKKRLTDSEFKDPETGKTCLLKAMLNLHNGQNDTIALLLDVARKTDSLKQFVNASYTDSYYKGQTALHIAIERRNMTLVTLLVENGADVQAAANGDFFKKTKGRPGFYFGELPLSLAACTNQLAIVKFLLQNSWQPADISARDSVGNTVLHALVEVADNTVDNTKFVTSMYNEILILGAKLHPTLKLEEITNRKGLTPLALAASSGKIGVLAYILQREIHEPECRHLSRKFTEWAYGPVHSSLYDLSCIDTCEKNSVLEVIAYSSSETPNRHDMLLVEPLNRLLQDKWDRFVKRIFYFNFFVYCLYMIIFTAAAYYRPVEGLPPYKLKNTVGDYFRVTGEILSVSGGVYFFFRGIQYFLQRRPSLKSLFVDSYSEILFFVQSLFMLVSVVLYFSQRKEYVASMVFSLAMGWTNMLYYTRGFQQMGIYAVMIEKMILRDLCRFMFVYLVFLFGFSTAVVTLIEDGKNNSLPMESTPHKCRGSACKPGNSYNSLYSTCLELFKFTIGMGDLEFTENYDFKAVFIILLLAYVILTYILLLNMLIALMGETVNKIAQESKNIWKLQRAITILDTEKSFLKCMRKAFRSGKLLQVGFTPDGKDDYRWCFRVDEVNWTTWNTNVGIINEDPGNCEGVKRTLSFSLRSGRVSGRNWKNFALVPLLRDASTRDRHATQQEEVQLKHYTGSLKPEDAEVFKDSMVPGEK
Assay type: cell-based
Experimental: The activity of the compounds was determined on TRPV1 expressing cells (TRPV1-SH-SY5Y) by Calcium microfluorometry assay.
SH-SY5Y cells stably expressing rat TRPV1 channel (SH-SY5Y-TRPV1) were grown in Earle's minimum essential medium (MEM) containing 10% (v/v) of FCS, 1% nonessential amino acids, 2 mM L-glutamine, 100 μg/ml streptomycin, 100 U/ml penicillin, and 0.4 μg/ml puromycin in a humidity-controlled incubator with 5% CO2 and at 37° C. For fluorescence assays, cells expressing TRPV1 channel (TRPV1-SH-SY5Y) were seeded in 96-well plates (Corning Incorporated, Corning, N.Y.) at a cell density of 40,000 cells 2 days before treatment. The day of treatment the medium was replaced with 100 μL of the dye loading solution Fluo-4 NW supplemented with probenecid 2.5 mM. After incubation at 37° C. in a humidified atmosphere of 5% CO2 for 60 minutes, plates were transferred to a fluorescence plate reader (Polastar Omega BMG Labtech). The baseline fluorescence of Fluo-4 dye ([…]) was recorded for 4 cycles. […] The antagonist (10 μM Ruthenium Red for TRPV1) was added for the blockade. The changes in fluorescence intensity were recorded during 10 cycles more.

SMILES | TRPV1 blockage at 10 μM (% ± SD) [%]
COc1cc(CNC(=O)COC(=O)CC/C(C)=C/CC/C(C)=C/CC/C=C(\C)CCC=C(C)CCC=C(C)C)c(I)cc1O (stereo in doubt) [Ex-53, (4E,8E,12E,16E)-2-((4-hydroxy-2-iodo-5-methoxy-benzyl)amino)-2-oxoethyl 4,8,13,17,21-pentamethyl-docosa-4,8,12,16,20-pentaenoate] | 31.05 ± 1.46
CCCC(=O)OCC(=O)NCc1cc(OC)c(O)cc1I [Ex-17, 2-((4-hydroxy-2-iodo-5-methoxybenzyl)amino)-2-oxoethyl butyrate] | 14.44 ± 0.27
CCCCC(=O)OCC(=O)NCc1cc(OC)c(O)cc1I [Ex-19, 2-((4-hydroxy-2-iodo-5-methoxybenzyl)amino)-2-oxoethyl pentanoate] | 21.85 ± 2.85
COc1cc(CNC(=O)COC(=O)CC(C)C)c(I)cc1O [Ex-21, 2-((4-hydroxy-2-iodo-5-methoxybenzyl)amino)-2-oxoethyl 3-methyl-butanoate] | 8.35 ± 4.10
CCCCCC(=O)OCC(=O)NCc1cc(OC)c(O)cc1I [Ex-23, 2-((4-hydroxy-2-iodo-5-methoxybenzyl)amino)-2-oxoethyl hexanoate] | 23.14 ± 7.81
C/C=C/C=C/C(=O)OCC(=O)NCc1cc(OC)c(O)cc1I [Ex-25, (2E,4E)-2-((4-hydroxy-2-iodo-5-methoxybenzyl)amino)-2-oxoethyl hexa-2,4-dienoate] | 13.98 ± 5.98
CCCCCCC(=O)OCC(=O)NCc1cc(OC)c(O)cc1I [Ex-27, 2-((4-hydroxy-2-iodo-5-methoxybenzyl)amino)-2-oxoethyl heptanoate] | 21.80 ± 5.41
CCCCCCCC(=O)OCC(=O)NCc1cc(OC)c(O)cc1I [Ex-29, 2-((4-hydroxy-2-iodo-5-methoxybenzyl)amino)-2-oxoethyl octanoate] | 31.23 ± 8.34
CCCCCCCCC(=O)OCC(=O)NCc1cc(OC)c(O)cc1I [Ex-31, 2-((4-hydroxy-2-iodo-5-methoxybenzyl)amino)-2-oxoethyl nonanoate] | 25.23 ± 7.63
CCCCCCCCCC(=O)OCC(=O)NCc1cc(OC)c(O)cc1I [Ex-35, 2-((4-hydroxy-2-iodo-5-methoxybenzyl)amino)-2-oxoethyl decanoate] | 20.48 ± 9.67
CCCCCCCCCCCCCCC(=O)OCC(=O)NCc1cc(OC)c(O)cc1I [Ex-39, 2-((4-hydroxy-2-iodo-5-methoxybenzyl)amino)-2-oxoethyl pentadecanoate] | 21.82 ± 4.75
CCCCCCCCCCCCCCCCCC(=O)OCC(=O)NCc1cc(OC)c(O)cc1I [Ex-41, 2-((4-hydroxy-2-iodo-5-methoxybenzyl)amino)-2-oxoethyl stearate] | 38.89 ± 3.53
CCCCCCCC/C=C\CCCCCCCC(=O)OCC(=O)NCc1cc(OC)c(O)cc1I [Ex-43, 2-((4-hydroxy-2-iodo-5-methoxybenzyl)amino)-2-oxoethyl oleate] | 45.68 ± 14.26
CCCCCC[C@@H](O)C/C=C\CCCCCCCC(=O)OCC(=O)NCc1cc(OC)c(O)cc1I [Ex-45, (R,Z)-2-((4-hydroxy-2-iodo-5-methoxybenzyl)amino)-2-oxoethyl 12-hydroxyoctadec-9-enoate] | 21.74 ± 7.05
CCCCCC[C@H](C/C=C\CCCCCCCC(=O)OCC(=O)NCc1cc(OC)c(O)cc1I)OC(=O)Cc1ccccc1 [Ex-47, (Z)-2-((4-hydroxy-2-iodo-5-methoxybenzyl)amino)-2-oxoethyl 12-(2-phenyl-acetoxy)octadec-9-enoate] | 63.29 ± 12.80
CCCCCCCC/C=C\CCCCCCCCCCCC(=O)OCC(=O)NCc1cc(OC)c(O)cc1I [Ex-49, (Z)-2-((4-hydroxy-2-iodo-5-methoxybenzyl)amino)-2-oxoethyl docos-13-enoate] | 34.94 ± 5.51
CCCCC/C=C\C/C=C\C/C=C\C/C=C\CCCC(=O)OCC(=O)NCc1cc(OC)c(O)cc1I [Ex-51, (5Z,8Z,11Z,14Z)-2-((4-hydroxy-2-iodo-5-methoxy-benzyl)amino)-2-oxoethyl icosa-5,8,11,14-tetraenoate] | 30.85 ± 5.87
CC(C)=CCC/C(C)=C/C(=O)OCC(=O)NCCc1cc(O)c(O)cc1I [Ex-59, (E)-2-((4,5-dihydroxy-2-iodophenethyl)amino)-2-oxoethyl 3,7-dimethylocta-2,6-dienoate] | 46.3 ± 12.70

Same assay, conditions: compound 10 μM, Fluo-4 NW fluorescence, Cap (10 μM capsaicin) = 100%

SMILES | TRPV1 activation at 10 μM (% ± SD) [%]
COc1cc(CNC(=O)CCCC/C=C/C(C)C)ccc1O [Capsaicin, reference compound] | 100
CCCC(=O)OCC(=O)NCc1ccc(O)c(OC)c1 [Ex-16, 2-((4-hydroxy-3-methoxybenzyl)amino)-2-oxoethyl butyrate] | 25.59 ± 4.29
CCCCC(=O)OCC(=O)NCc1ccc(O)c(OC)c1 [Ex-18, 2-((4-hydroxy-3-methoxy-benzyl)amino)-2-oxoethyl pentanoate] | 29.43 ± 14.90
COc1cc(CNC(=O)COC(=O)CC(C)C)ccc1O [Ex-20, 2-((4-hydroxy-3-methoxy-benzyl)amino)-2-oxoethyl 3-methylbutanoate] | 35.82 ± 3.48
CCCCCC(=O)OCC(=O)NCc1ccc(O)c(OC)c1 [Ex-22, 2-((4-hydroxy-3-methoxy-benzyl)amino)-2-oxoethyl hexanoate] | 73.32 ± 12.83
C/C=C/C=C/C(=O)OCC(=O)NCc1ccc(O)c(OC)c1 [Ex-24, (2E,4E)-2-((4-hydroxy-3-methoxybenzyl)amino)-2-oxoethyl hexa-2,4-dienoate] | 75.59 ± 6.25
CCCCCCC(=O)OCC(=O)NCc1ccc(O)c(OC)c1 [Ex-26, 2-((4-hydroxy-3-methoxy-benzyl)amino)-2-oxoethyl heptanoate] | 74.41 ± 17.66
CCCCCCCC(=O)OCC(=O)NCc1ccc(O)c(OC)c1 [Ex-28, 2-((4-hydroxy-3-methoxy-benzyl)amino)-2-oxoethyl octanoate] | 54.08 ± 4.09
CCCCCCCCC(=O)OCC(=O)NCc1ccc(O)c(OC)c1 [Ex-30, 2-((4-hydroxy-3-methoxybenzyl)amino)-2-oxoethyl nonanoate] | 68.45 ± 7.20
CCCCCCCCCC(=O)OCC(=O)NCc1ccc(O)c(OC)c1 [Ex-34, 2-((4-hydroxy-3-methoxy-benzyl)amino)-2-oxoethyl decanoate] | 47.91 ± 10.32
CCCCCCCCCCCCCCC(=O)OCC(=O)NCc1ccc(O)c(OC)c1 [Ex-38, 2-((4-hydroxy-3-methoxy-benzyl)amino)-2-oxoethyl pentadecanoate] | 75.96 ± 9.86
CCCCCCCCCCCCCCCCCC(=O)OCC(=O)NCc1ccc(O)c(OC)c1 [Ex-40, 2-((4-hydroxy-3-methoxy-benzyl)amino)-2-oxoethyl stearate] | 54.74 ± 17.75
CCCCCCCC/C=C\CCCCCCCC(=O)OCC(=O)NCc1ccc(O)c(OC)c1 [Ex-42, 2-((4-hydroxy-3-methoxy-benzyl)amino)-2-oxoethyl oleate] | 77.19 ± 11.95
CCCCCC[C@@H](O)C/C=C\CCCCCCCC(=O)OCC(=O)NCc1ccc(O)c(OC)c1 [Ex-44, (R,Z)-2-((4-hydroxy-3-methoxybenzyl)amino)-2-oxoethyl 12-hydroxyoctadec-9-enoate] | 60.84 ± 12.80
CCCCCC[C@H](C/C=C\CCCCCCCC(=O)OCC(=O)NCc1ccc(O)c(OC)c1)OC(=O)Cc1ccccc1 [Ex-46, (Z)-2-((4-hydroxy-3-methoxy-benzyl)amino)-2-oxoethyl 12-(2-phenylacetoxy)octadec-9-enoate] | 33.16 ± 9.97
CCCCCCCC/C=C\CCCCCCCCCCCC(=O)OCC(=O)NCc1ccc(O)c(OC)c1 [Ex-48, (Z)-2-((4-hydroxy-3-methoxybenzyl)amino)-2-oxoethyl docos-13-enoate] | 47.40 ± 14.56
CCCCC/C=C\C/C=C\C/C=C\C/C=C\CCCC(=O)OCC(=O)NCc1ccc(O)c(OC)c1 [Ex-50, (5Z,8Z,11Z,14Z)-2-((4-hydroxy-3-methoxy-benzyl)amino)-2-oxoethyl icosa-5,8,11,14-tetraenoate] | 73.80 ± 7.42
CC(C)=CCC/C(C)=C/C(=O)OCC(=O)NCCc1ccc(O)c(O)c1 [Ex-58, (E)-2-((3,4-dihydroxyphenethyl)amino)-2-oxoethyl 3,7-dimethylocta-2,6-dienoate] | 88.12 ± 9.76
CCCCCCCC/C=C\CCCCCCCC(=O)OCC(=O)NCCc1ccc(O)c(O)c1 [Ex-62, 2-((3,4-dihydroxyphenethyl)-amino)-2-oxoethyl oleate] | 78.48 ± 4.61
